# In PMC12047801, “Disrupting the OTUD4-USP7 deubiquitinase complex to suppress herpesvirus replication: a novel antiviral strategy” (PLOS Pathogens, 2025):
# System: KSHV genome replication in BCBL-1 cells
# Test: Relative viral genomic copy number (latency) by qPCR in BCBL-1 cells
# Format: cell-based
# Conditions: Fig. S1F, 100 μM, 48 h
substance,measurement,setting,value
Ac-YGRKKRRQRRRGGVNQSASQSSN-NH2 [p8],Relative viral genomic copy number,replicate 1,1.16
same,Relative viral genomic copy number,replicate 2,1.11
same,Relative viral genomic copy number,replicate 3,0.96
